Source: US20090123488A1, “Compositions and methods for the treatment and prophylaxis of Alzheimer's disease” (priority 2006, published 2009)

Columns and labels:
[1] = system: Aβ40; conditions: immunized mice (Agadjanyan et al 2005); cited from earlier work
[2] = system: amyloid-β; conditions: mice, alum adjuvant, five boosts (Agadjanyan et al 2005); cited from earlier work
[3] = system: synthetic Aβ40; experiment: Effect of booster doses: mouse serums titered on synthetic Aβ40; assay type: in vivo; conditions: three mice
Procedure: After immunizations with the immunogens of Example 1, serums were assayed to determine anti-Aβ peptide titers by conventional ELISA methods. […] After thorough washing with 0.1% triton X 100 buffer, blocking with 1% bovine serum albumin (BSA) and rewashing, serum dilutions were applied and incubated at 22° C. for 1 hour. After incubation, the plates were thoroughly washed with triton-X 100 buffer again and 1/10,000 goat anti-mouse IgG-horseradish peroxidase (HRP) conjugate (or the appropriate reagent for rat or rabbit) was applied. The plates were then incubated for 1 hour at 22° C. then washed thoroughly and developed with ABTS for 45 minutes at room temperature on a shaker table. Absorbance was measured at 405 nm. Control wells containing 1/60000 normal mouse serum were measured; and the reciprocal of the […] dilution of test serums with an OD greater than the mean+8 SDs of controls was taken as the titer.
In an experiment to determine the effect of booster dosages, three mice were immunized with experimental immunogen, Pam2C-SSQYIKANSKFIGITELDAEFRHDSGYEVHHQ-amide (SEQ ID NO: 13) in a protocol of a 1 mg intraperitoneal (IP) priming dose at Day 0, followed by a 1 mg IP booster at Week 3, and a 1 mg IP second booster at Week 6. Mice were bled at weeks 5 and 8. The serums are titered on synthetic Aβ40. […]

Chain of Aβ40 (P05067 672-711): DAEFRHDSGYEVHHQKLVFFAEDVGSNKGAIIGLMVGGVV

| Substance | T cell response to Aβ40 [1] | maximal titer [2] | GMT at 5 weeks ([3]; 1 mg IP Day 0, boosters Week 3 and Week 6, bled week 5) [million] | GMT at 8 weeks ([3]; 1 mg IP Day 0, boosters Week 3 and Week 6, bled week 8) [million] |
| --- | --- | --- | --- | --- |
| Aβ33-MAP: Aβ33 synthesized as a multiple antigenic peptide (Agadjanyan et al 2005) | demonstrable T cell response | 64,000 |  |  |
| Pam2C-SSQYIKANSKFIGITELDAEFRHDSGYEVHHQ-amide [Pam2-QYIK-AB1-15] |  |  | 3 | 8 |
